Like-named read-outs stand apart in the source and are kept apart here.
What was measured:
[1] = test system: IL-8 production in human PBMC stimulated with CL075; test: Human PBMC assay: inhibition of IL-8 production stimulated with CL075 (ELISA); format: cell-based; conditions: 3 to 1000 nM antagonist, 2 hours before CL075 100 ng/ML (400 nM), overnight; one donor, duplicate wells
Protocol: PBMCs contain a mixture of cells including monocytes and myeloid dendritic cells (mDCs) that express TLR8. […] The ability of TLR8 antagonists to inhibit […] in human PBMCs was evaluated. […] Data shown in FIG. 1 are a representative experiment from one donor evaluated in duplicate culture wells. […] At the end of the incubation, cells were centrifuged and cell culture supernatants were analyzed for IL-8 by ELISA (eBiosciene kit) per the manufacturer's instructions.
The experiment shown in FIG. 1 was repeated in multiple donors and with additional TLR8 antagonist molecules (see FIG. 2). […] Percent inhibition is shown on the y-axis and concentrations of TLR8 antagonists (3-1000 nM) are shown on the x-axis in FIG. 2.

hTLR8 = target: T1, hTLR8 (Homo sapiens, UniProt Q9NR97); test: HEK-293 hTLR8 transfectant antagonist assay (NF-κB driven SEAP reporter); format: cell-based; conditions: hTLR8 reporter cells
T1 construct: host or cells: HEK293 cells stably transfected with hTLR8
T1 sequence (Q9NR97 27-1041): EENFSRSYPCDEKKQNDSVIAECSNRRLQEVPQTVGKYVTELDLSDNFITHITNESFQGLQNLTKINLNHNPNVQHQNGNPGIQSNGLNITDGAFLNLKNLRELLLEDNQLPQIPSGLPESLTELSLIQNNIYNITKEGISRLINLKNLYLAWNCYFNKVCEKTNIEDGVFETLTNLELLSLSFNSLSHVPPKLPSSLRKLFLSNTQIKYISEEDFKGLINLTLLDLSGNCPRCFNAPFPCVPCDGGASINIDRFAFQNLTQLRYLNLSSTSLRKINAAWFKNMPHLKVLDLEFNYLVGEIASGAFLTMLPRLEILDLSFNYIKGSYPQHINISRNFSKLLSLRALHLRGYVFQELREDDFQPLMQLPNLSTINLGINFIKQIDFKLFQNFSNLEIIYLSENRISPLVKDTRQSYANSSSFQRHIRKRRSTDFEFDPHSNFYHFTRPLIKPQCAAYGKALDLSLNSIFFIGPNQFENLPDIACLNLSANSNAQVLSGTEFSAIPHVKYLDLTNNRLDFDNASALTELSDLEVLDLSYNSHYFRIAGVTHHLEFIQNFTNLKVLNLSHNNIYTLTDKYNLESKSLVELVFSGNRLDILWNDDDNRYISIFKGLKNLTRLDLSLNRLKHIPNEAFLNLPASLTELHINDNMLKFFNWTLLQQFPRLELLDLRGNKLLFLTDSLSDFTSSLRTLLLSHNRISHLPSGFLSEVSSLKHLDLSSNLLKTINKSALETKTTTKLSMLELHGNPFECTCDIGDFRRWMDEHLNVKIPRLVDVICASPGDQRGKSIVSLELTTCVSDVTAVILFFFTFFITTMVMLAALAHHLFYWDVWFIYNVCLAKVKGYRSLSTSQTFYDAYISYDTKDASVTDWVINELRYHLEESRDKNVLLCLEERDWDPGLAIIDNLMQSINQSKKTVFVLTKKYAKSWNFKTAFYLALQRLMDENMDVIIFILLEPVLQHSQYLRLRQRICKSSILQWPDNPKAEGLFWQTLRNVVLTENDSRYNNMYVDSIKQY
Protocol: The HEK-293 hTLR transfectant assay employs HEK293 cells stably transfected with various hTLRs and transiently co-transfected with a plasmid containing an NF-κB driven secreted embryonic alkaline phosphate (SEAP) reporter gene. Stimulation of TLRs activates their downstream signaling pathways and induces nuclear translocation of the transcription factor NF-κB. Reporter gene activity is then measured using a spectrophotometric assay. To measure antagonist activity, human embryonic kidney (HEK) cells (e.g., 293XL-hTLR8 cells available from InvivoGen, San Diego, Calif.) are prepared according to supplier's instructions and incubated with various concentrations of test compound overnight. The amount of induced […] is measured by reading the absorbance at 650 nm. The compounds of the invention have an MC50 of 25 μM or less, wherein MC50 is defined as the concentration at which 50% of maximum induction is seen. For the TLR8 antagonist assays, cells are transiently transfected with the reporter gene on Day 1 per the supplier's instructions. Antagonist compounds are added to the cultures on Day 2 followed by addition of a TLR8 agonist approximately 2 hours later. Cultures are incubated overnight and SEAP activity is measured on Day 3. In a typical assay, 50,000 HEK239 hTLR8 cells are seeded per culture well and transiently transfected with the SEAP reporter gene. Antagonists are added to cultures in culture medium and […] DMSO over a concentration range of 0.1 nanomolar to 10 micromolar. TLR8 agonists are added to cultures 2 hours later at a fixed concentration (e.g., 1 micromolar or 10 micromolar of Compound A) and cultures are then incubated for 16-24 hrs at 37° C. in a humidified CO incubator. Antagonists are also evaluated for activity in the absence of agonist. TLR8 antagonist activity was measured in a hTLR8 assay format, measuring IC50 values. […] IC50s were then calculated.

[2] = IC50, nM, vs. 3M002 1 μM, agonist 3M002 1 μM
[3] = IC50, nM, vs. 3M002 10 μM, agonist 3M002 10 μM
[4] = IC50, nM, vs. VTX-378 1 μM, TLR8 agonist VTX-378 (Compound A) 1 μM
[5] = TLR8 agonist VTX-378 (Compound A) 0.5 μM, read-out: IC50, nM, vs. VTX-378 0.5 μM
[6] = IC50, nM, vs. VTX-378 10 μM, TLR8 agonist VTX-378 (Compound A) 10 μM

CCCN(CCC)C(=O)C1=Cc2cc(-c3ccc(C(=O)N4CCCC4)cc3)ccc2N=C(N)C1 [Compound 2987, 2-Amino-N,N-dipropyl-7-[4-(pyrrolidin-1-ylcarbonyl)phenyl]-3H-1-benzazepine-4-carboxamide]
IL-8 levels in human PBMC stimulated with CL075 (FIG. 1) [1]: reduced in a dose dependent fashion

CCOC(=O)C1=Cc2cc(-c3ccccc3Cl)ccc2N=C(N)C1 [Compound 3127, Ethyl 2-amino-7-(2-chlorophenyl)-3H-1-benzazepine-4-carboxylate]
IC50 (hTLR8; [2]): < 1000 nM | IC50 (hTLR8; [3]): 1000 to 10000 nM | IC50 (hTLR8; [4]): < 1000 nM | IC50 (hTLR8; [5]): < 1000 nM

CCOC(=O)C1=Cc2cc(Oc3ccccc3C)ccc2N=C(N)C1 [Compound 3128]
IC50 (hTLR8; [2]): < 1000 nM | IC50 (hTLR8; [3]): 1000 to 10000 nM | IC50 (hTLR8; [4]): 1000 to 10000 nM | IC50 (hTLR8; [5]): < 1000 nM

CCOC(=O)C1=Cc2cc(-c3ccccc3C(C)C)ccc2N=C(N)C1 [Compound 3141, Ethyl 2-amino-7-(2-isopropylphenyl)-3H-1-benzazepine-4-carboxylate]
IC50 (hTLR8; [4]): 1000 to 10000 nM | IC50 (hTLR8; [5]): < 1000 nM

CCOC(=O)C1=Cc2cc(-c3cccc(Cl)c3Cl)ccc2N=C(N)C1 [Compound 3155, Ethyl 2-amino-7-(2,3-dichlorophenyl)-3H-1-benzazepine-4-carboxylate]
IC50 (hTLR8; [4]): ≥ 10000 nM | IC50 (hTLR8; [5]): 1000 to 10000 nM

CCOC(=O)C1=Cc2cc(-c3c(C)cccc3C)ccc2N=C(N)C1 [Compound 3162]
IC50 (hTLR8; [4]): 1000 to 10000 nM | IC50 (hTLR8; [5]): 1000 to 10000 nM

CCOC(=O)C1=Cc2cc(-c3ccc(N4CCCC4=O)cc3)ccc2N=C(N)C1 [Compound 3190, Ethyl 2-amino-7-[4-(2-oxopyrrolidin-1-yl)phenyl]-3H-1-benzazepine-4-carboxylate]
IC50 (hTLR8; [4]): 1000 to 10000 nM | IC50 (hTLR8; [5]): < 1000 nM

CCOC(=O)C1=Cc2cc(C(=O)OC(C)C)ccc2N=C(N)C1 [Compound 3197]
IC50 (hTLR8; [4]): 1000 to 10000 nM | IC50 (hTLR8; [6]): 1000 to 10000 nM

CCOC(=O)Nc1ccc(-c2ccc3c(c2)C=C(C(=O)OCC)CC(N)=N3)cc1 [Compound 3199, Ethyl 2-amino-7-{4-[(ethoxycarbonyl)amino]phenyl}-3H-1-benzazepine-4-carboxylate]
IC50 (hTLR8; [4]): < 1000 nM | IC50 (hTLR8; [5]): < 1000 nM

CCOC(=O)C1=Cc2cc(C3=CCN(C(=O)OCC)CC3)ccc2N=C(N)C1 [Compound 3202]
IC50 (hTLR8; [4]): < 1000 nM | IC50 (hTLR8; [6]): < 1000 nM

CCOC(=O)C1=Cc2cc(C3=CCN(C(=O)N4CCCC4)CC3)ccc2N=C(N)C1 [Compound 3254]
IC50 (hTLR8; [4]): 1000 to 10000 nM | IC50 (hTLR8; [5]): 1000 to 10000 nM

CCOC(=O)C1=Cc2cc(-c3ccccc3OC)ccc2N=C(N)C1 [Compound 3264, Ethyl 2-amino-7-(2-methoxyphenyl)-3H-1-benzazepine-4-carboxylate]
IC50 (hTLR8; [3]): < 1000 nM | IC50 (hTLR8; [4]): < 1000 nM | IC50 (hTLR8; [5]): < 1000 nM

CCOC(=O)C1=Cc2cc(-c3cccc(OC)c3)ccc2N=C(N)C1 [Compound 3267, Ethyl 2-amino-7-(3-methoxyphenyl)-3H-1-benzazepine-4-carboxylate]
IC50 (hTLR8; [3]): 1000 to 10000 nM | IC50 (hTLR8; [4]): 1000 to 10000 nM | IC50 (hTLR8; [5]): 1000 to 10000 nM

CCOC(=O)C1=Cc2cc(-c3ccc(C)cc3)ccc2N=C(N)C1 [Compound 3272, Ethyl 2-amino-7-(4-methylphenyl)-3H-1-benzazepine-4-carboxylate]
IC50 (hTLR8; [2]): < 1000 nM | IC50 (hTLR8; [3]): 1000 to 10000 nM | IC50 (hTLR8; [4]): 1000 to 10000 nM | IC50 (hTLR8; [5]): 1000 to 10000 nM

CCOC(=O)C1=Cc2cc(-c3ccc(NC(=O)N(C)C)cc3)ccc2N=C(N)C1 [Compound 3290, Ethyl 2-amino-7-{4-[(dimethylcarbamoyl)amino]phenyl}-3H-1-benzazepine-4-carboxylate]
IC50 (hTLR8; [2]): < 1000 nM | IC50 (hTLR8; [3]): 1000 to 10000 nM | IC50 (hTLR8; [4]): 1000 to 10000 nM | IC50 (hTLR8; [5]): < 1000 nM

CCOC(=O)C1=Cc2cc(-c3cccc(C)c3Cl)ccc2N=C(N)C1 [Compound 3294, Ethyl 2-amino-7-(2-chloro-3-methylphenyl)-3H-1-benzazepine-4-carboxylate]
IC50 (hTLR8; [4]): 1000 to 10000 nM | IC50 (hTLR8; [5]): 1000 to 10000 nM

CCOC(=O)C1=Cc2cc(-c3ccc(N4CCOC4=O)cc3)ccc2N=C(N)C1 [Compound 3300, Ethyl 2-amino-7-[4-(2-oxo-1,3-oxazolidin-3-yl)phenyl]-3H-1-benzazepine-4-carboxylate]
IC50 (hTLR8; [2]): < 1000 nM | IC50 (hTLR8; [3]): < 1000 nM | IC50 (hTLR8; [4]): < 1000 nM | IC50 (hTLR8; [5]): < 1000 nM

CCOC(=O)C1=Cc2cc(-c3ccc(C(=O)N4CCCC4)cc3Cl)ccc2N=C(N)C1 [Compound 3322]
IC50 (hTLR8; [3]): < 1000 nM | IC50 (hTLR8; [4]): < 1000 nM | IC50 (hTLR8; [5]): < 1000 nM

CCCN(CC(N)=O)C(=O)C1=Cc2cc(-c3ccc(NC(=O)OCC)cc3Cl)ccc2N=C(N)C1 [Compound 3336, Ethyl (4-{2-amino-4-[(2-amino-2-oxoethyl)(propyl)carbamoyl)-3H-1-benzazepin-7-yl}-3-chlorophenyl)carbamate]
IC50 (hTLR8; [2]): < 1000 nM | IC50 (hTLR8; [3]): 1000 to 10000 nM | IC50 (hTLR8; [4]): 1000 to 10000 nM | IC50 (hTLR8; [5]): < 1000 nM

CCCN(CC(N)=O)C(=O)C1=Cc2cc(-c3ccc(C(=O)N4CCCC4)cc3Cl)ccc2N=C(N)C1 [Compound 3342, 2-Amino-N-(2-amino-2-oxoethyl)-7-[2-chloro-4-(pyrrolidin-1-ylcarbonyl)phenyl]-N-propyl-3H-1-benzazepine-4-carboxamide]
IC50 (hTLR8; [3]): < 1000 nM | IC50 (hTLR8; [4]): < 1000 nM | IC50 (hTLR8; [5]): < 1000 nM

CCCN(CC(N)=O)C(=O)C1=Cc2cc(-c3ccc(C(=O)N4CCCC4)cc3C)ccc2N=C(N)C1 [Compound 3343, 2-Amino-N-(2-amino-2-oxoethyl)-7-[2-methyl-4-(pyrrolidin-1-ylcarbonyl)phenyl]-N-propyl-3H-1-benzazepine-4-carboxamide]
IC50 (hTLR8; [4]): < 1000 nM | IC50 (hTLR8; [5]): < 1000 nM

CCOC(=O)C1=Cc2cc(-c3ccc(C(=O)N4CCCC4)cc3)ccc2N=C(N)C1(C)C [Compound 3348, Ethyl 2-amino-3,3-dimethyl-7-[4-(pyrrolidin-1-ylcarbonyl)phenyl]-3H-1-benzazepine-4-carboxylate]
IL-8 levels in human PBMC stimulated with CL075 (FIG. 1) [1]: reduced in a dose dependent fashion

CCOC(=O)C1=Cc2cc(-c3cccc(OC)c3Cl)ccc2N=C(N)C1 [Compound 3386, Ethyl 2-amino-7-(2-chloro-3-methoxyphenyl)-3H-1-benzazepine-4-carboxylate]
IC50 (hTLR8; [4]): < 1000 nM | IC50 (hTLR8; [5]): < 1000 nM

NC1=Nc2ccc(-c3ccc(C(=O)N4CCCC4)cc3)cc2C=C(Br)C1 [Compound 3444]
IC50 (hTLR8; [4]): < 1000 nM | IC50 (hTLR8; [5]): < 1000 nM
